The values below come from EP1202967B1, “SULFURIC ACID MONO-[3-({1-[2-(4-FLUORO-PHENYL)-ETHYL]-PIPERIDIN-4-YL}-HYDROXY-METHYL)-2-METHOXY-PHENYL]ESTER” (AVENTIS PHARMACEUTICALS INC., priority 1999, dated 2001).

The structures appear in SMILES notation.

The term Ki denotes the equilibrium dissociation constant of an inhibitor or competing ligand from its target. For orientation: Papp means the rate of passage across a membrane or cell layer, normalised by area and donor concentration. Read a low Papp as poor permeation. A word on the Kd: it is the equilibrium constant for the complex coming apart. A lower Kd goes with a tighter complex.

For one series, the target named is T1, human D2L (Homo sapiens, UniProt P14416).
T1 construct: expressed in transfected cells; membranes prepared
The series can be described thus: Receptor binding assay, inhibition of [3H]-ligand binding to human D2L. As to conditions: [3H]N-methyl spiperone 1 nM, CHO cell membranes, 37°C, 60 min; read-out: D2(Ki µM). The protocol:
(§1) Cells stably expressing the human homologs of the receptors (dopamine D2L, serotonin 5HT2A and 5HT2C, α1A adrenergic; cloned and expressed at Hoechst Marion Roussel; Grandy et al., 1989: Monsma et al., 1993; Schwinn et al., 1995) were grown: cell membranes were prepared, and kept frozen until used (Kongsamut et al., 1996). […] All binding parameters were optimized at Hoechst Marion Roussel; ligand KdS were determined using both saturation analysis (Scatchard) as well as kinetic analysis (association and dissociation rates). Each batch of membrane was validated by checking the ligand Kd, and rank order of potency of selected standard compounds. Assays for the serotonin 5HT2A and dopamine D2L receptors were conducted at 37°C in a Tris buffer containing salts (50 mM Tris Buffer, pH 7.7; 120 mM NaCl; 5 mM KCI; 2 mM CaCl2; 1 mM MgCl2), while the serotonin 5-HT2C and α1A adrenergic receptor assays used a different buffer without salts (50 mM Tris, 4 mM CaCl2 and 1% ascorbate, pH 7.4). […]
(§2) Membranes were rapidly thawed and diluted to an appropriate concentration (between 20 - 150 µg protein/assay point depending on receptor expression level) in Tris buffer and homogenized. […] Microscint scintillation cocktail (40 µl) were added and the filter plates were counted in a Packard Top Count scintillation counter.

Another series has as its target T2, human α1A (Homo sapiens, UniProt P35348).
T2 construct: expressed in transfected cells; membranes prepared
T2 sequence (P35348 1-466): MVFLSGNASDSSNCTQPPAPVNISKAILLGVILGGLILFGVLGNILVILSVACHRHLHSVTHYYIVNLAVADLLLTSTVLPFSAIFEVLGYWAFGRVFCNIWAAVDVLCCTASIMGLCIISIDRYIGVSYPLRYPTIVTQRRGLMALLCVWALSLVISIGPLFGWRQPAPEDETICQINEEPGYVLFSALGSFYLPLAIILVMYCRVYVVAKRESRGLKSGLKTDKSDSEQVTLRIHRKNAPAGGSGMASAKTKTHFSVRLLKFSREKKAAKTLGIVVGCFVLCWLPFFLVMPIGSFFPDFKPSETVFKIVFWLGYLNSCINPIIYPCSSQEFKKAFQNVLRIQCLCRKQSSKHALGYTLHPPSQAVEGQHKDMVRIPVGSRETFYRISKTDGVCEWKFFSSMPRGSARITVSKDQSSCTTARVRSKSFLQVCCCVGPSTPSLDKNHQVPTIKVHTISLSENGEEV
As to the kind of experiment: Receptor binding assay, inhibition of [3H]-ligand binding to human α1A. The note with it: [3H]prazosin 1 nM, CHO cell membranes, 37°C, 40 min. The protocol:
as §1, §2

The target in the next series is T3, human 5-HT2A (Homo sapiens, UniProt P28223).
T3 construct: expressed in transfected cells; membranes prepared
The series can be described thus: Receptor binding assay, inhibition of [3H]-ligand binding to human 5-HT2A. The protocol:
Cells stably expressing the human homologs of the receptors (dopamine D2L, serotonin 5HT2A and 5HT2C, α1A adrenergic; cloned and expressed at Hoechst Marion Roussel; Grandy et al., 1989: Monsma et al., 1993; Schwinn et al., 1995) were grown: cell membranes were prepared, and kept frozen until used (Kongsamut et al., 1996). The relevance of these binding sites has been extensively discussed in the literature (see for example: Carlsson & Carlsson. 1990; Creese et al., 1976; Gorman & Vargas, 1995; Meltzer et al., 1989). All binding parameters were optimized at Hoechst Marion Roussel; ligand KdS were determined using both saturation analysis (Scatchard) as well as kinetic analysis (association and dissociation rates). Each batch of membrane was validated by checking the ligand Kd, and rank order of potency of selected standard compounds. […]
Membranes were rapidly thawed and diluted to an appropriate concentration (between 20 - 150 µg protein/assay point depending on receptor expression level) in Tris buffer and homogenized. […] Microscint scintillation cocktail (40 µl) were added and the filter plates were counted in a Packard Top Count scintillation counter. Data were analyzed to determine Ki's for compounds of interest (Prusoff & Cheng, […]).Table: Receptor Binding Parameters. […]

The next series concerns the target T4, human 5-HT2C (Homo sapiens, UniProt P28335).
T4 construct: expressed in transfected cells; membranes prepared
T4 sequence (P28335 33-458): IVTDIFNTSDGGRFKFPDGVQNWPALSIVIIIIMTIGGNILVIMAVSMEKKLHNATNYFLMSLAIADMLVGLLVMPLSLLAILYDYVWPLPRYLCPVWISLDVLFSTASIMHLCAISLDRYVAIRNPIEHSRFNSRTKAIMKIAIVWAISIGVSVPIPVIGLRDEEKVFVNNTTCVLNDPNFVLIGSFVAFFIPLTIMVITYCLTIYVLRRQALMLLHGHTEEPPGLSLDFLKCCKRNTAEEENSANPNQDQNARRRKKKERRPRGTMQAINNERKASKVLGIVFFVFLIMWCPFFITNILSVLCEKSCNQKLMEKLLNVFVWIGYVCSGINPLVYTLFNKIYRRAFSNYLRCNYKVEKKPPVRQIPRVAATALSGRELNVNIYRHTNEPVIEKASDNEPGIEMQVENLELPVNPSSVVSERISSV
As to the kind of experiment: Receptor binding assay, inhibition of [3H]-ligand binding to human 5-HT2C. The note with it: [3H]mesulergine 2 nM, CHO cell membranes, 37°C, 40 min. The protocol: as §1, §2

Series [1] can be described thus: Bovine Brain Endothelial Cells (BBMEC) transport study, in vitro BBB permeability. The class given is in vitro ADME. The note with it: BBMEC monolayer, mean ± standard deviation. The protocol:
The compounds of this invention are capable of crossing the blood-brain barrier (BBB) as shown by their ability to penetrate across a membrane of a monolayer of bovine brain microvessel endothelial cells, an in vitro model for BBB permeability.
The procedure was performed according to: Kenneth L. Audus et al., Brain Microvessel Endothelial Cell Culture System (Chapter 13) pp 239-258. In Models for Assessing Drug Absorption and Metabolism, Ronald T. Borchardt et al. eds., Plenum Press, New York 1996.

T3 sequence (P28223 whole entry): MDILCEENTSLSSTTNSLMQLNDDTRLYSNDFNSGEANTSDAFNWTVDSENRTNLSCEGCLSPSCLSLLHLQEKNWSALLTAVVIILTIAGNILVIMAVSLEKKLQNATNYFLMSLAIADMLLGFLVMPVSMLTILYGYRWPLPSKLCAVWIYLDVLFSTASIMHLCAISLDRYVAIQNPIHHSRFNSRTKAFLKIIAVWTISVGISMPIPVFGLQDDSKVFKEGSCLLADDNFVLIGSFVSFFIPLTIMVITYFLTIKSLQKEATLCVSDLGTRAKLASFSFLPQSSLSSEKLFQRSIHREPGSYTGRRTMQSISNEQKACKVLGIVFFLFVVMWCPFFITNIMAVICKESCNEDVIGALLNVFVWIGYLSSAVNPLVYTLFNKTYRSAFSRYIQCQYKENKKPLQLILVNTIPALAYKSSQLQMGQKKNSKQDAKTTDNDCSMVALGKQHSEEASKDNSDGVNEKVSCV
T1 sequence (P14416 whole entry): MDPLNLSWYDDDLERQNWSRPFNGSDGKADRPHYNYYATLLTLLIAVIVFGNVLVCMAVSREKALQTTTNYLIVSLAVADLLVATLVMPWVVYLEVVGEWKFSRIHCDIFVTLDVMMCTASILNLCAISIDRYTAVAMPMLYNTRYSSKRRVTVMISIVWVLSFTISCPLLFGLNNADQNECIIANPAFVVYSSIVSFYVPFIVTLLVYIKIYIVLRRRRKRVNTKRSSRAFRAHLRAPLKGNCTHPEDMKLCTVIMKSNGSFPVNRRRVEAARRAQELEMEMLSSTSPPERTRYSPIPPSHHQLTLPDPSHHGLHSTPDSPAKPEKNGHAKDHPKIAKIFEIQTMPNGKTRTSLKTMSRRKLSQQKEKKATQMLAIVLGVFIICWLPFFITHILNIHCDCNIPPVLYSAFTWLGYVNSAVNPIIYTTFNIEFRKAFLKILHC

With `COc1c(OS(=O)(=O)O)cccc1C(O)C1CCN(CCc2ccc(F)cc2)CC1` (single isomer, unassigned) [Example 1H, Sulfuric acid mono-(+)-(3-(-{1-[2-(4-fluoro-phenyl)-ethyl]-piperidin-d-yl}-hydroxy-methyl)-2-methoxy-phenyl] ester], the Ki at human D2L was above 1 µM; on human α1A, above 1 µM; on human 5-HT2A ([3H]N-methyl spiperone 1.5 nM, BHK cell membranes, 37°C, 40 min) it was 0.16 µM; on human 5-HT2C it was above 1 µM. In series [1], this molecule displayed a Papp at 5.4 µM of 41.4 ± 16.4 ×10⁻⁶ cm/s. The apparent permeability (Papp) at 16 µM in series [1] came to 52.5 ± 9.5 ×10⁻⁶ cm/s.
Consider `OC[C@@H](O)[C@@H](O)[C@H](O)[C@H](O)CO` [Mannitol, reference compound], for which, in series [1], the apparent permeability coefficient (Papp) at 5.4 µM is 27.6 ± 2.3 ×10⁻⁶ cm/s and the apparent permeability coefficient (Papp) at 16 µM was 27.6 ± 2.3 ×10⁻⁶ cm/s.
Turning to `CN1CN(c2ccccc2)C2(CCN(CCCC(=O)c3ccc(F)cc3)CC2)C1=O` [[^3H]N-methyl spiperone, reference compound], binding on human 5-HT2A (radioligand Kd at human 5-HT2A, BHK, saturation (Scatchard) and kinetic analysis) was characterised by a dissociation constant (Kd) of 0.92 nM.
